Assay results as given in patent US20220241223A1, “USE OF DISULFIRAM OR ITS DERIVATIVES FOR THE TREATMENT OF MITOCHONDRIAL DISEASES OR DYSFUNCTION” (Universite D'angers, priority 2019, published 2022).

Key:
[1] = system: Δcoa6 cells; assay: Growth in liquid non-fermentable medium with increasing DSF concentrations; assay type: cell-based; details: Saccharomyces cerevisiae, 40 h, read-out: toxic dose (IC50)
Description: (§1) Exponentially growing cells were inoculated in fresh non-fermentable YPG or YPE media supplemented, or not, with increasing DSF concentrations.
(§2) More precisely, the shy1-G137R and Δcoa6 cells have been grown for 40 h in liquid medium containing 2% glycerol and 0.1% galactose as carbon source and increasing concentrations of DSF (100 nM to 6 μM). The A29G and fmc1Δ cells have been grown for 48 h in liquid medium containing 2% glycerol as carbon source and increasing concentrations of DSF (50 nM to 5 μM). The taz1Δ and sym1Δ cells have been grown for 48 h in rich liquid medium containing 2% ethanol/0.2% galactose and 2% glycerol/2% ethanol as a carbon source, respectively, and increasing concentrations of DSF (100 nM to 9 μM).

[2] = system: control cybrids (JCP213); assay: Control cybrid growth in glucose-deprived medium; assay type: cell-based, human; details: same range of concentration
Description: The cybrid cell lines JCP213 (WT control) and JCP239 (NARP T8993G, Manfredi G et al.) were grown in high glucose (4.5 g/L final concentration) DMEM (supplemented with fetal bovine serum—FBS—at 5% final concentration, sodium pyruvate at 1 mM final concentration, L-glutamine at 4 mM final concentration and uridine at 200 μM final concentration) and then shifted in the same DMEM-based medium except that it is deprived of glucose to encourage the cells to rely on OXPHOS (OXidative PHOSphorylation) rather than glycolysis, supplemented with: • various concentrations of DSF; or • as control, with equivalent quantity of DMSO (compound vehicle, negative control); or • with 150 μM dihydrolipoic acid (DHLA, positive control, as in previous studies (Couplan E et al. & Aiyar R S et al.). All the cells were grown at 37° C. in presence of 5% CO2.

[3] = system: mitochondrial complex I in MELAS neuronal cybrid cells; assay: Complex I enzyme activity in MELAS cybrid cells; assay type: cell-based, human; details: FIG. 5; various concentrations, especially from 30 to 90 nM; 48 h exposure; low glucose medium (0.5 g/l)
Description: FIG. 5: Effect of DSF compared to untreated mutant cells (DMSO vehicle) after 48 h exposure on complex I enzyme activity in MELAS neuronal cybrid cells in low glucose medium (0.5 g/l).
The SH-SY5Y neuronal mutant cybrid cells, carrying the m.3243A>G with 98.6% mutant load responsible for MELAS syndrome, were cultured in standard DMEM high glucose media (4.5 g/L) or in low glucose (0.5 g/L), supplemented with 10% fetal bovine serum, 1% glutamine and 50 μg/ml uridine at 37° C. in presence of 5% CO2 as described elsewhere (Desquiret-Dumas et al. & Geffroy et al.). To optimize drug concentrations, cells were shifted to low glucose-medium 0.5 g/l (to force the cells to rely on OXPHOS rather than glycolysis) supplemented with various concentrations of DSF or of the vehicle (DMSO).
Complex I enzyme activity was measured at 37° C. on an UVmc2 spectrophotometer (SAFAS) as described (Desquiret-Dumas et al., 2012). For complex I enzyme activity, 0.5 million of cells were sonicated (6 cycles of 5 seconds) then incubated at 37° C. in the reaction medium (KH2PO4 100 mM, pH 7.4, KCN 1 mM, NaN3 2 mM, BSA 1 mg/ml, ubiquinone-1 0.1 mM and DCPIP 0.075 mM). The reaction was started by adding 0.15 mM NADH and the disappearing rate of DCPIP was measured at 600 nm for 2 minutes. The unspecific activity was determined in the presence of rotenone (5 μM).

[4] = in e.g. alcohol or chloroform; cited from earlier work
[5] = system: taz1Δ cells; assay: Growth in liquid non-fermentable medium with increasing DSF concentrations; assay type: cell-based, Saccharomyces cerevisiae; details: TAZ1 deletion, 48 h, 2% ethanol/0.2% galactose
Description: as §1, §2

[6] = system: shy1-G137R cells; assay: as above; assay type: cell-based, Saccharomyces cerevisiae; details: 40 h, 2% glycerol and 0.1% galactose
Description: as §1, §2

[7] = system: fmc1Δ cells; assay: as above; assay type: cell-based, Saccharomyces cerevisiae; details: 48 h
Description: as §1, §2

[8] = system: A29G cells; assay: as above; assay type: cell-based, Saccharomyces cerevisiae; details: 48 h
Description: as §1, §2

[9] = system: sym1Δ cells; assay: as above; assay type: cell-based, Saccharomyces cerevisiae; details: 48 h
Description: as §1, §2

[10] = suppression of respiratory growth defect
[11] = Saccharomyces cerevisiae, read-out: toxic dose (IC50)

Which IC50 [1] does the source give for CCN(CC)C(=S)SSC(=S)N(CC)CC [DSF, 1-(diethylthiocarbamoyldisulfanyl)-N,N-diethyl-methanethioamide] here?
Its IC50 is 3.1 µM.

And the “effect on growth of control cybrids” value [2]?
The value was “no effect”.

And the “effect on complex I activity” value [3]?
Its value is “increases complex I activity”.

And the solubility [4]?
The solubility was “high solubility”.

What about the IC50 ([5]; Saccharomyces cerevisiae, DSF 100 nM to 9 μM, read-out: toxic dose (IC50)) of the same molecule?
Its IC50 is 9 µM.

What about the optimal concentration [5, 10] of the same molecule?
The optimal concentration was 1 µM.

And the IC50 ([6]; Saccharomyces cerevisiae, DSF 100 nM to 6 μM, read-out: toxic dose (IC50))?
The IC50 was 1.9 µM.

What about the optimal concentration [6, 10] of the same molecule?
Its optimal concentration is 300 nM.

And the optimal concentration ([7]; FMC1 deletion, suppression of respiratory growth defect, 2% glycerol)?
Its optimal concentration is 1 µM.

What about the IC50 [7, 11] of the same molecule?
The IC50 was 6 µM.

And the optimal concentration ([8]; A29G mutation, suppression of respiratory growth defect, 2% glycerol)?
The optimal concentration was 150 to 200 nM.

And the IC50 [8, 11]?
Its IC50 is 0.4 µM.

What about the optimal concentration ([9]; SYM1 deletion, suppression of respiratory growth defect, 2% glycerol/2% ethanol) of the same molecule?
The optimal concentration was 1 µM.

What about the IC50 [9, 11] of the same molecule?
The IC50 was 9 µM.
